In one assay the target is T1, Aminopeptidase N (Sus scrofa, UniProt P15145).
T1 sequence (P15145 whole entry): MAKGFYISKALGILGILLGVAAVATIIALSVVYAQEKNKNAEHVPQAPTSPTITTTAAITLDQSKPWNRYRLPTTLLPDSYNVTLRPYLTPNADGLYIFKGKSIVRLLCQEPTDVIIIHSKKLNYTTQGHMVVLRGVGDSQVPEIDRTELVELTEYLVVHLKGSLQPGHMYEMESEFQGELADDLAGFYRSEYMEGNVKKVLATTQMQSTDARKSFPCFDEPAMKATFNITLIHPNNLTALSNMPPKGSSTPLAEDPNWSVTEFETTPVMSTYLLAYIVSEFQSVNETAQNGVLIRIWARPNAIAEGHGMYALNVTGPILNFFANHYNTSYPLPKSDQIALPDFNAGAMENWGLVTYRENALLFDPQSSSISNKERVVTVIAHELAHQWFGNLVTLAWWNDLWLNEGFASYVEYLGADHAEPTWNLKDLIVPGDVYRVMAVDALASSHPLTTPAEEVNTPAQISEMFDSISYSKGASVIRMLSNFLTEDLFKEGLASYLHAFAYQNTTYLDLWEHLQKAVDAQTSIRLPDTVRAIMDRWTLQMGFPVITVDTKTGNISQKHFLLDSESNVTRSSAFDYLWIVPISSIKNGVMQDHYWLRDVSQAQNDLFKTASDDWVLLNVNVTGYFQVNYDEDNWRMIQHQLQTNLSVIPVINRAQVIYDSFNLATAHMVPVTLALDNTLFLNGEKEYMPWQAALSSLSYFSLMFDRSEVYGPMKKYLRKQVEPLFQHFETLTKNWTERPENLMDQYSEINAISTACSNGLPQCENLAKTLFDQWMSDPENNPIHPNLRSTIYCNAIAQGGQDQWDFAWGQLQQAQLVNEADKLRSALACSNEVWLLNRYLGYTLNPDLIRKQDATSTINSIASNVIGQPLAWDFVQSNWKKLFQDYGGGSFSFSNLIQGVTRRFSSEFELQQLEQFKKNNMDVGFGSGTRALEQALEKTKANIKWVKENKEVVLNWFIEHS
Put plainly: Inhibition of porcine kidney microsomal aminopeptidase N using L-Leu-p-nitroanilide as substrate pre-incubated for 30 mins prior substrate addition by UV-VIS spectrophotometry.

Another assay relates to H22. Put plainly: Antimetastatic activity against […] H22 cells xenografted in mouse assessed as inhibition of metastasized nodes on lung surface dosed orally 6 days/week for 2 weeks. Type of assay: functional. For orientation: A xenograft is tissue or cells of one species grown in another, often human tumour cells in immunodeficient mice.
In assay [1] the target is T2, Aminopeptidase N (Sus scrofa) (UniProt P15145).
T2 sequence (whole entry): T1 sequence (P15145 whole entry)
Put plainly: Ratio of bestatin IC50 to compound IC50 for porcine kidney microsomal aminopeptidase N.

Another assay has as its system HL-60. In words: Antiproliferative activity against human HL60 cells after 48 hrs by MTT assay. Type of assay: functional, cell-based. The settings on record: HL-60, 48 h. (Tetrazolium dyes change colour on reduction, which living cells bring about.)

pIC50: −log10 of the molar value.

In the case of `CC(C)[C@H](N)C(=O)N[C@H]1CC(=O)N(CC(=O)NO)C1=O`, the negative logarithm of the IC50 (pIC50) – broadly, −log10 of the IC50, conventionally taken in molar units – against Aminopeptidase N was 6.00.
As for `Cl.N[C@@H](Cc1ccccc1)C(=O)N[C@H]1CC(=O)N(CC(=O)NO)C1=O`, the negative logarithm of the IC50 (pIC50) against Aminopeptidase N is 6.00; in the assay on HL-60, 3.83. In addition, the “inhibition (INH)” value with H22 was 54.21%. Also, in assay [1], the Ratio IC50 was 2.4.
For `NCC(=O)N[C@H]1CC(=O)N(CC(=O)NO)C1=O`, the pIC50 on Aminopeptidase N is 6.00.
Turning to `CC(C)C[C@H](NC(=O)[C@@H](O)[C@H](N)Cc1ccccc1)C(=O)N1CCC[C@H]1C(=O)N1CCC[C@H]1C(=O)O`, the Ratio IC50 in assay [1] was 50.
`CC(C)C[C@H](N)C(=O)N[C@H]1CC(=O)N(CC(=O)NO)C1=O` had a pIC50 against Aminopeptidase N of 6.00.
The same measure, in the same setting: under `N[C@@H](Cc1ccc(O)cc1)C(=O)N[C@H]1CC(=O)N(CC(=O)NO)C1=O` stands 6.00.
The molecule `O=C(CN1C(=O)C[C@H](NC(=O)[C@@H]2CCCN2)C1=O)NO` showed a pIC50 on Aminopeptidase N of 6.00.
Still for that read-out and setting: then `NCCCC[C@H](N)C(=O)N[C@H]1CC(=O)N(CC(=O)NO)C1=O`, with 6.00; and `CC[C@@H](C)[C@H](N)C(=O)N[C@H]1CC(=O)N(CC(=O)NO)C1=O`, with 6.00; and `C[C@H](N)C(=O)N[C@H]1CC(=O)N(CC(=O)NO)C1=O`, with 6.00.
On to `CC(C)C[C@H](NC(=O)[C@@H](O)[C@H](N)Cc1ccccc1)C(=O)O` [UBENIMEX], for which the “inhibition (INH)” value in the assay with H22 came out at 45.37%.
